Data from patent US7763287B2, “Extract of Cercis chinensis having anti-oxidant activity and anti-aging activity, and cosmetical composition containing the extract for anti-oxidation, skin-aging protection and wrinkle improvement” (Hankook Pharm. Co., Inc., priority 2002, dated 2010).

Tested on: HEK-N/F cells
Experiment: Telomere length / maximum PDL (Southern blot of TRFs)
Format: cell-based, human
Description: In the above Example 8, an extract of […] chinensis and active ingredients separated from the same were confirmed to have an effect of prolongation of life span of a cell. Thus, in this example, relation between the effect of prolongation of life span and the length of a telomere was investigated. Particularly, genomic DNA was extracted from each cell of different ages by using a nucleic acid extraction kit (Isoquick Nucleic Acid Extraction kit, ORCA Research Inc.), which was stored at 4° C. after being dissolved in Tris-EDTA solution (10 mM Tris-HCl, 1 mM EDTA, pH 8.0). 2 μl of 10×H buffer solution (TaKaRa), 2 μl of the extracted genomic DNA solution and distilled water were all mixed in a 1.5 ml tube, making final volume 19 μl. Then, 1 μl at of restriction enzyme […]) was added thereto. […] Then, the gel was immersed in 0.25 N HCl, followed by shaking for 15 minutes. The gel was washed twice with distilled water. This gel was dipped into denaturing solution (0.2 N NaOH, 0.6 M NaCl), followed by shaking for 25 minutes at room temperature. And then, the gel was washed three times with distilled water. On a blotting device filled with 6×SSC, nitrocellulose membrane (Optitran BA-S 85, Schleicher & Schuel), 3 mm filter paper, paper towel, glass plate and weight (2 kg) were loaded in that order, followed by blotting overnight. After the blotting was finished, membrane filter was soaked in 3×SSC, and then water was discarded smoothly. The positions of the wells on the membrane were marked. The membrane was placed between filter papers, followed by baking at 80° C. for overnight. […] After being dried, the membrane was covered with wrap and set in a cassette on which X-ray film (Scientific Imaging Film, Kodak) and intensifying screen were attached. Autoradiography was performed at -80° C. for overnight. Based on the developed film and the location of the membrane, the positions of the wells were marked by a magic pen. The density peak of TRFs was detected by a laser densitometer (UltroScan XL, Pharmacia) and its mobility was calculated.

Compound: O=c1c(O)c(-c2cc(O)c(O)c(O)c2)oc2cc(O)cc(O)c12 [Chemical Formula 9, myricetin]
- telomere shortening speed delayed, comparing to control: 1.6 times
- maximum PDL (control 14.1): 23.1
